ChEMBL document CHEMBL1153021, “Phenylphenalenones from the Australian plant Haemodorum simplex” (J Nat Prod, 2009)

Experiments:
P388 = assay: Cytotoxicity against mouse P388 cells after 72 hrs by MTT assay; format: functional, cell-based; conditions: P388, 72 h
Bacillus subtilis = assay: Antibacterial activity against Bacillus subtilis ATCC 19659 at 30 ug; format: functional; conditions: read-out: IZ
[1] = test system: Trichophyton mentagrophytes; assay: Antifungal activity against Trichophyton mentagrophytes ATCC 28185 at 100 IU; format: functional, organism-based
Amorphotheca resinae = assay: Antifungal activity against Cladosporium resinae at 100 IU; format: functional, organism-based

COc1cc2c3c(ccc(-c4ccccc4)c3c1OC)C(=O)OC2=O
IC50 (P388): > 26 µM

O=C(N[C@H](CO)[C@H](O)c1ccc([N+](=O)[O-])cc1)C(Cl)Cl [CHLORAMPHENICOL]
zone of inhibition at 30 µg/disc (Bacillus subtilis): 12 mm

COC1=Cc2cc(O)c(O[C@@H]3O[C@H](CO)[C@@H](O)[C@H](O)[C@H]3O)c3c(-c4ccccc4)ccc(c23)C1=O [DILATRIN]
IC50 (P388): > 26 µM

COc1c(O)cc2c3c(ccc(-c4ccc(O)cc4)c13)C(=O)OC2=O [HAEMODOROL]
IC50 (P388): > 26 µM

COc1c(O)cc2c3c(ccc(-c4ccccc4)c13)C(=O)OC2=O [HAEMODORONE]
IC50 (P388): > 26 µM

COc1cc2c3c(ccc(-c4ccccc4)c3c1O[C@@H]1O[C@H](CO)[C@@H](O)[C@H](O)[C@H]1O)C(=O)OC2 [HAEMODOROSE]
IC50 (P388): > 26 µM

COC1=Cc2cc(OC)c(O)c3c(-c4ccccc4)ccc(c23)C1=O [XIPHIDONE]
IC50 (P388): > 26 µM

NYSTATIN
inhibition zone (IZ) [1]: 6 mm | inhibition zone (IZ) (Amorphotheca resinae): 10 mm
